Experimental data taken from US20260315446A1, “ANTIFUNGAL COMPOUNDS AND USES THEREOF” (priority 2023, published 2026).
In brackets after ≈: the same amount, converted by molar mass. Entries after “also recorded” stand apart in the source; their conditions may differ. Where two headings read alike, the source gives them in different places.

What was measured:
immunosuppression = settings: listed as L-685,818; cited from earlier work
C. neoformans = assay: MIC assay (Example 4); type: cell-based, Cryptococcus neoformans; settings: Cryptococcus neoformans
Method: Both JH-FK-10 and JH-FK-11 maintained in vitro antifungal activity against C. neoformans with MICs of 0.8 and 1.6 μg/mL, respectively (Table 11).
In vitro antifungal activity of FK506, FK520, and analogs was assessed in RPMI 1640 (Sigma-Aldrich) for all strains tested. Minimum inhibitory concentrations (MIC) for each drug were measured using modified Clinical and Laboratory Standards Institute (CLSI) M38-A2 and M27-A3 standard in vitro antifungal susceptibility protocols. Broth microdilution assays for MIC assessment were performed as previously described. All antifungal assays with C. neoformans were performed at 37° C.

[1] = system: IL-2 expression in primary murine CD4+ T cells; assay: In vitro immunosuppressive activity, IL-2 expression (Example 4); type: cell-based, mouse
Method: Spleen and lymph nodes were collected from C57BL/6 mice and homogenized through a 40 μm filter. Pan-CD4^+ T cells were enriched using MagniSort Mouse CD4 T cell Kit (eBioscience) according to the manufacturer's protocol. Thereafter, CD4+CD25−CD44lo CD62Lhi naïve T cells were FACS-sorted. The naïve CD4+ T cells were grown in Iscove's Modified Dulbecco's Medium (IMDM) supplemented with glutamine, penicillin, streptomycin, gentamicin, 2-mercaptoethanol, and 10% FBS. Cells were then cultured on anti-hamster IgG coated plates in the presence of hamster anti-CD3 epsilon and anti-CD28 antibodies (BD Biosciences), neutralizing anti-IL-4 antibody (eBioscience), recombinant IL-12 (10 ng/mL), and recombinant IL-2 (50 U/mL) for 72 h. During this period, cells were grown in the presence of 2× serially diluted FK506, FK520, or analog suspended in DMSO for 72 h. During the last 4 h of culture, phorbol 12-myristate 13-acetate (PMA; Sigma), ionomycin (Sigma), and GolgiStop (BD Biosciences) were added to the culture to facilitate detection of intracellular cytokines via flow cytometry.
Live cells were stained with FITC-conjugated anti-CD4 antibody (eBioscience) and Fixable Viability Dye eFluor 506 (eBioscience) on ice, followed by fixation and permeabilization using the Foxp3 Transcription Factor Staining Kit (eBioscience). Intracellular staining was performed at room temperature using PE-conjugated anti-IL-2 antibody (eBioscience), followed by analysis with a BD LSRFortessa X-20 flow cytometer.

fungi = settings: listed as L-685,818; cited from earlier work
C. neoformans H99 [2] = assay: Survival in intranasal cryptococcosis model (Example 1); type: in vivo, Cryptococcus neoformans in A/J mice; settings: 14 days treatment; JH-FK-05 60 mg/kg, fluconazole 12 mg/kg, i.p. daily
Method: To verify if this reduction seen in the fungal burdens of JH-FK-05 and combination-treated animals could translate into a meaningful therapeutic effect, the survival of animals infected via the intranasal route was assessed (FIG. 8A). As in the fungal burden model, these animals received daily treatment for only 14 days. Following the termination of treatment, animals were monitored for signs of decline, lethargy, and ultimately, moribundity. Untreated animals in this model typically survive for about 3 weeks, and similar results were observed here (vehicle treatment median survival, 22 days). Corroborating the results of the fungal burden study, a significant extension of survival for both JH-FK-05 (median survival, 26 days) and fluconazole (median survival, 25 days) was observed.
Female A/J mice (3 to 4 weeks old; Jackson Laboratory) were anesthetized utilizing an isoflurane chamber. While anesthetized, […] of 2×10^6 cells/mL suspension was dripped onto the nares of mice, allowing them to inhale the full inoculum. Treatment began 3 h following infection with i.p. dosing of vehicle, 60 mg/kg JH-FK-05, 12 mg/kg fluconazole, or combination. […] After 14 days, animals were either sacrificed for fungal burden analysis or monitored for health and survival until reaching a humane endpoint. […] Statistical significance was determined using log-rank (Mantel-Cox) tests.

C. neoformans strain H99 [3] = assay: Survival during cryptococcal infection (Example 3); type: in vivo, Cryptococcus neoformans in A/J mice; settings: 2 weeks twice daily i.p.; fluconazole 6 mg/kg, JH-FK-08 40 mg/kg; vehicle 16 days
Method: Finally, whether the antifungal efficacy translates into extended survival during infection was assessed. To test the impact of treatment on survival, murine survival was monitored in the cryptococcosis infection model. Following the same protocol of infection and dosing as in the fungal burden experiment, animal survival was monitored following infection and 2 weeks of intraperitoneal dosing. Fluconazole treatment extended median survival from 16 to 27 days.
(§1) C. neoformans inoculum was prepared by growing a 5-mL overnight YPD culture spinning in a tissue culture roller drum at 30° C. Cells were pelleted by centrifugation and washed in sterile PBS three times. Cell density was determined by hemocytometer, and cells were diluted to 2×10^6 cells/mL. Mice (10 to 20 g) were infected with 10^5 cells of C. neoformans H99. For inhalation infection, animals were anesthetized with isoflurane before 50 μL of inoculum was pipetted onto the upright nasal passages of each animal. Following inhalation of the inoculum, animals were monitored for post anesthesia recovery. Treatment of animals began 4 hours post infection and was continued for 14 days. Fungal burden was assessed 24 h after the final dose.
For survival curve analysis, animals were monitored until reaching defined humane end points, including social isolation, hunched posture, weight loss, lack of grooming, and labored breathing, and were then euthanized via CO2 inhalation. For fungal burden analysis, mice were euthanized following 2 weeks of treatment with a designated antifungal, vehicle, or combination. Brain, lung, and spleen were harvested from animals, weighed, and homogenized in sterile PBS using steel beads and a bead beater. Each organ homogenate was serially diluted 10-fold to 10-4 in PBS. One hundred microliters of each dilution was plated on YPD plates supplemented with YPD 50 μg/mL ampicillin and 30 μg/mL chloramphenicol, incubated at 30° C. for 2 days, and assessed for colony-forming units. CFU per organ weight was calculated and plotted using GraphPad Prism 9.

C. neoformans strain H99 [4] = assay: Murine cryptococcal infection, lung fungal burden (Example 3); type: in vivo, Cryptococcus neoformans in A/J mice; settings: JH-FK-08 40 mg/kg
Method: In vivo antifungal activity and therapeutic benefit were assayed by investigating the impact of the FK520 analog on organ fungal burden during cryptococcosis. Specifically, the in vivo efficacy of JH-FK-08 on fungal burden was assessed using A/J female mice. Immunodeficient A/J mice were selected in part due to their defect in complement component five and their susceptibility to cryptococcal infection. Treatment groups included vehicle of 10% Kolliphor: ethanol (1:1) in phosphate-buffered saline (PBS), […], or the fluconazole and JH-FK-08 combination, […] infection. […] Mice were intranasally infected with C. neoformans strain H99, and fungal burden in the lung, spleen, and brain was assessed after 14 days of treatment.
as §1
For survival curve analysis, animals were monitored until reaching defined humane end points, including social isolation, hunched posture, weight loss, lack of grooming, and labored breathing, and were then euthanized via CO2 inhalation. […] One hundred microliters of each dilution was plated on YPD plates supplemented with YPD 50 μg/mL ampicillin and 30 μg/mL chloramphenicol, incubated at 30° C. for 2 days, and assessed for colony-forming units. CFU per organ weight was calculated and plotted using GraphPad Prism 9.

C. neoformans strain H99 [5] = assay: Murine cryptococcal infection, brain fungal burden (Example 3); type: in vivo, Cryptococcus neoformans in A/J mice; settings: 14 days; fluconazole 6 mg/kg, JH-FK-08 40 mg/kg, i.p. twice per day
Method: (§2) In vivo antifungal activity and therapeutic benefit were assayed by investigating the impact of the FK520 analog on organ fungal burden during cryptococcosis. Specifically, the in vivo efficacy of JH-FK-08 on fungal burden was assessed using A/J female mice. Immunodeficient A/J mice were selected in part due to their defect in complement component five and their susceptibility to cryptococcal infection. Treatment groups included vehicle of 10% Kolliphor: ethanol (1:1) in phosphate-buffered saline (PBS), 6 mg/kg fluconazole, 40 mg/kg JH-FK-08, or the fluconazole and JH-FK-08 combination, all given via intraperitoneal (i.p.) injection twice per day beginning at 4 hours post infection. […] Mice were intranasally infected with C. neoformans strain H99, and fungal burden in the lung, spleen, and brain was assessed after 14 days of treatment.
as §1, with “For inhalation infection, animals were anesthetized with isoflurane before 50 μL of inoculum was pipetted onto the upright nasal passages of each animal.” left out, “Treatment of animals began 4 hours post infection and was continued for 14 days.” left out, “dose. […]” for “dose.”

C. neoformans H99 [6] = assay: Intranasal model of pulmonary cryptococcosis, lung fungal burden (Example 1); type: in vivo, Cryptococcus neoformans in A/J mice; settings: day 14; fluconazole 12 mg/kg i.p. daily
Method: First, in the intranasal model, animals were anesthetized and infected with 10^5 cells of wild-type H99 C. neoformans via instillation in the animal's nares. These animals were monitored for 14 days and then sacrificed. This model tests the efficacy of JH-FK-05 to treat a pulmonary infection, which is the most common manifestation of early-stage cryptococcosis in patients. […] In both models, animals were treated once daily via i.p. injection beginning 3 h after infection with either vehicle, 60 mg/kg JH-FK-05, 12 mg/kg fluconazole, or a combination of the two monotherapies.
Wild-type H99 C. neoformans cells were grown overnight at 30° C. in a roller drum in yeast extract-peptone-dextrose (YPD) medium. […] H99 cells were counted with a hemacytometer and diluted to 2×10^6 cells/mL in PBS for the pulmonary model and 2×10^5 cells/mL in PBS for the disseminated model.
Female A/J mice (3 to 4 weeks old; Jackson Laboratory) were anesthetized utilizing an isoflurane chamber. […] After 14 days, animals were either sacrificed for fungal burden analysis or monitored for health and survival until reaching a humane endpoint.
Mice were euthanized by CO2 inhalation at the predetermined experimental endpoint. […] A 100-μL aliquot of each dilution was plated on antibiotic plates (YPD, 50 μg/mL ampicillin, and 30 g/mL chloramphenicol), incubated for 48 to 72 h at 30° C., and assessed for CFU. […]

C. neoformans strain H99 [7] = assay: Murine cryptococcal infection, spleen fungal burden (Example 3); type: in vivo, Cryptococcus neoformans in A/J mice; settings: 14 days; fluconazole 6 mg/kg, JH-FK-08 40 mg/kg, i.p. twice per day
Method: as §2
as §1, with “For inhalation infection, animals were anesthetized with isoflurane before 50 μL of inoculum was pipetted onto the upright nasal passages of each animal.” left out, “Treatment of animals began 4 hours post infection and was continued for 14 days.” left out, “dose. […]” for “dose.”

Row | SMILES | immunosuppression (immunosuppression) | MIC (C. neoformans; 37° C., Table 13, read-out: C. neoformans MIC) [µg/mL] | MIC (C. neoformans; read-out: C. neoformans MIC, 37° C., Table 11) [µg/mL] | MIC (C. neoformans; read-out: C. neoformans MIC, 37° C., Table 12) [µg/mL] | immunosuppressive activity [1] | IC50 ([1]; Mus musculus, CD4+ T, Table 12) [nM] | antifungal activity (fungi) | median survival (C. neoformans H99 [2]) [days] | median survival (C. neoformans strain H99 [3]) [days] | reduction of lung fungal burden (C. neoformans strain H99 [4]; 14 days, fluconazole 6 mg/kg, i.p. twice per day) | lung fungal burden reduction (C. neoformans strain H99 [4]; once daily, fluconazole 12 mg/kg) | brain fungal burden (C. neoformans strain H99 [5]) | lung fungal burden (C. neoformans H99 [6]) | spleen fungal burden (C. neoformans strain H99 [7])
1 | CC[C@@H]1/C=C(\C)C(O)[C@H](C)C[C@H](OC)[C@H]2O[C@@](O)(C(=O)C(=O)N3CCCC[C@H]3C(=O)O[C@H](/C(C)=C/[C@@H]3CC[C@@H](O)[C@H](OC)C3)[C@H](C)[C@@H](O)CC1=O)[C@H](C)C[C@@H]2OC (single isomer, unassigned) [JH-FK-11] | non-immunosuppressive; also recorded: reduced for immunosuppression in vitro | 1.6 (≈ 1.98 µM) | 3.2 (≈ 3.96 µM) | 1.6 (≈ 1.98 µM) | detectable immunosuppressive activities; also recorded: significantly reduced for immunosuppressive activity compared to its FK506 counterpart JH-FK-10 | 41.4 | robust antifungal activity; also recorded: broad-spectrum antifungal activity |  |  |  |  |  |  | 
2 | OC(Cn1cncn1)(Cn1cncn1)c1ccc(F)cc1F [fluconazole, reference compound] |  |  |  |  |  |  |  | 25 | 27 | ~ 6 fold | limited efficacy in reducing lung fungal burden | no detectable fungal burden | did not reduce the fungal burden | no detectable fungal burden
